Assay results published in patent publication US20240366605A1, “USE OF QUINAZOLINONE COMPOUND FOR THE TREATMENT OF CANCER” (Hoffmann-La Roche Inc., priority 2021, published 2024).

Tests used:
[1] = test system: subcutaneously implanted A375 tumours (BRAF V600E); assay: Subcutaneous A375 luc melanoma model (peripheral disease); type: in vivo, mice
Description: (§1) All animal experiments were approved by and performed according to the guidelines of the Institutional Animal Care Committee of the Vall d'Hebron Research Institute in agreement with the European Union and national directives. Female and male NOD scid gamma (NSG) mice of 4 to 5-week-old were purchased from Charles River.
For subcutaneous model, 5×10^6 A375 melanoma cells were subcutaneously injected into one flank of mice. Tumour growth was monitored with a Calipher.
The A375 cell line presenting BRAF V600E was used as melanoma model. The cell line was stably transduced with a luciferase expressing vector to facilitate tumor size monitoring. A375 luc were implanted subcutaneously to mimic peripheral disease and then randomized when tumors reached 100-300 mm^3. (10 mice/group). The mice were administered either Vehicle, Compound Ia 10 mg/kg (QD PO) or dabrafenib 100 mg/kg (QD PO). In a fourth treatment cohort, dabrafenib 100 mg/kg (QD PO) was administered until tumor relapse occurred, at which point dabrafenib treatment was discontinued and mice were instead treated with Compound Ia 10 mg/kg (QD PO).

[2] = test system: intracranially implanted A375 tumours (BRAF V600E); assay: Intracranial A375 luc melanoma model (brain metastatic setting); type: in vivo, mice
Description: as §1
For intracranial models, 5×10^5 A375 luc cells were stereotactically inoculated into the corpus striatum of the right brain hemisphere (1 mm anterior and 1.8 mm lateral to the […]; 2.5 mm intraparenchymal) of mice. Brain implanted tumors were monitored through regular Bioluminescence (BLI) signal detection and a relapse was determined upon observation of a progressive gradual increase of BLI signal.
The A375 cell line presenting BRAF V600E was used as melanoma model. The cell line was stably transduced with a luciferase expressing vector to facilitate tumor size monitoring. […] Brain implanted tumors were monitored through regular Bioluminescence (BLI) signal detection and a relapse was determined upon observation of a progressive gradual increase of BLI signal. […]
The A375 cell line presenting BRAF V600E was used as melanoma model. […] Brain implanted tumors were monitored through regular Bioluminescence (BLI) signal detection and a relapse was determined upon observation of a progressive gradual increase of BLI signal (total flux (p/s) was used to estimate tumour size). […]

[3] = test system: primary tumors from brain metastatic lesions progressing on BRAFi monotherapy or combination therapy with a MEKi; assay: In vivo testing in primary tumors from brain metastatic lesions progressing on BRAFi or BRAFi/MEKi
[4] = relapse under dabrafenib 100 mg/kg QD PO, caliper

SMILES | responses, peripheral lesions ([1]; peripheral compartment) | responses upon relapse to available BRAFi ([1]; switch to Compound Ia after relapse, peripheral lesions) | responses, brain metastatic lesions ([2]; brain compartment) | responses upon relapse to available BRAFi and BRAFi/MEKi co-treatment ([2]; switch to Compound Ia after relapse, brain lesions) | antitumor activity [3] | Tumour size in relapse (mean value) [1, 4] [mm^3] | Tumour size in relapse (range) [1, 4]
Cn1cnc2ccc(Oc3c(F)ccc(NS(=O)(=O)N4CC[C@@H](F)C4)c3C#N)cc2c1=O [Compound Ia, (3R)—N-[2-cyano-4-fluoro-3-(3-methyl-4-oxo-quinazolin-6-yl)oxy-phenyl]-3-fluoro-pyrrolidine-1-sulfonamide] | long lasting responses | dramatic responses | long lasting responses | dramatic responses | potent antitumor activity | – | –
CC(C)(C)c1nc(-c2cccc(NS(=O)(=O)c3c(F)cccc3F)c2F)c(-c2ccnc(N)n2)s1 [dabrafenib, reference compound] | – | – | – | – | – | 558 | 300-700 mm3
